From patent US10265321B2, “Uses of salt-inducible kinase (SIK) inhibitors” (Dana-Farber Cancer Institute, Inc., priority 2014, dated 2019)

Key:
[1] = system: IL-10 production by zymosan-stimulated BMDCs; experiment: IL-10 up-regulation in zymosan-stimulated BMDCs (AlphaLISA/ELISA); type: cell-based, mouse; settings: for EC50: Mus musculus, BMDC, read-out: IL-10 induction EC50; for effect on IL-10 production by BMDCs (in words): kinase inhibitor screen / PGE2 control
Experimental: (§1) Bone marrow-derived DCs were differentiated from C57BL/6 bone marrow in the presence of GM-CSF-conditioned media. CD11c^+ CX3CR1^hi myeloid cells and CD11c^+ CX3CR1^− DCs were isolated from the small intestine lamina propria of Cx3cr1^eGFP/+ mice (12). Detection of cell-surface Thy1.1 expression on BMDCs from 10BiT reporter mice was conducted as described previously (24). Cell viability was estimated by change in total cellular ATP levels using CellTiterGlo assays (Promega). Preparation of recombinant SIK proteins and IC50 measurements were conducted as described previously (21). Total RNA was extracted using a NucleoSpin 96 RNA isolation kit (Macherey-Nagel) followed by cDNA synthesis and multiplex RT-PCR using a microfluidic dynamic array (Fluidigm). The concentrations of TNF-α, IL-6, IL-10, IL-12p40, IL-1β and RANTES in culture supernatants were detected using a FlexSet Cytometric bead array (BD Biosciences). Alternatively, IL-10 secretion was quantified using ELISA (BD Biosciences) or AlphaLISA (PerkinElmer) assays. NO production was estimated based on nitrate content in culture medium using the Greiss reagent.
(§2) C57BL/6 mice were euthanized and bone marrow harvested from femurs and tibias as described previously (Graham D B, et al. (2007) An ITAM-signaling pathway controls cross-presentation of particulate but not soluble antigens in dendritic cells. The Journal of experimental medicine 204(12):2889-2897). BMDCs were differentiated DMEM supplemented with 2 mM GlutaMAX, 10% (vol/vol) FBS, penicillin, streptomycin and 2% mouse GM-CSF conditioned media derived from TOPO cells. Cultures were differentiated for 7 days and routinely analyzed for >90% CD11c (APC anti-CD11c clone HL3; BD Biosciences) positivity by flow cytometry before use in experiments. Lentiviral transduction of bone marrow cultures was conducted by addition of 293T culture supernatants containing lentiviral particles encoding the CREB dependent luciferase reporter construct or CRTC3 targeting or control shRNAs one day post-isolation. Stable integration of lentiviral shRNA constructs was selected by addition of puromycin (3 μg/mL) on day 4 post-transduction. After 2 days, stably transduced BMDCs were released from selection and used in subsequent assays. Unless otherwise indicated, cells were treated for 2 days with PGE2 (5 μM) or HG-9-91-01 (0.5 μM) or an equivalent concentration of DMSO (≤0.5%) and then stimulated for 18 hr with LPS (100 ng/mL), R848 (10 μg/mL) or zymosan (4 μg/mL).
BMDCs were seeded into black 384-well plates (Corning) at 20,000 cells/well in 40 μL complete DMEM using a Multidrop COMBI (Thermal Scientific) followed by incubation at 37° C. for 2 hr to allow for plate adherence. SIK inhibitors (100 nL/well) were pin-transferred from concentrated DMSO stocks using CyBi-Well Vario (CyBio) into duplicate plates. For each treatment plate, 32 out of 384 wells were pinned with DMSO as negative control and 32 out of 384 wells were pinned with PGE2 (5 μM final concentration). Two days after SIK inhibitor treatment, BMDCs were stimulated with zymosan (4 μg/mL final concentration) dispersed in culture medium (20 μL/well) using a Multidrop COMBI. After 18 hr, 5 μL of resulting supernatant was transferred from the culture plate to white 384-well AlphaLISA plates (Perkin Elmer) using a CyBi-Well Vario. IL-10 abundance in the supernatants was determined using an AlphaLISA assay (PerkinElmer) according to the manufacture's protocol and signal intensity measured using an EnVision multimode plate reader. SIK inhibitor activity was expressed as a % of the differences between the mean abundance of IL-10 in PGE2 versus DMSO wells on a per plate basis. Cell viability assays were conducted on the same tissue culture plates as the IL-10 assay. First media was removed and replaced by solution of 50% (vol/vol) CellTiter-Glo (Promega) in PBS. […]

BMDCs [2] = experiment: Cell viability of BMDCs (CellTiter-Glo, cellular ATP); type: cell-based, mouse; settings: for EC50: Mus musculus, BMDC, zymosan-stimulated BMDCs, read-out: Viability loss EC50
Experimental: as §1
BMDCs were seeded into black 384-well plates (Corning) at 20,000 cells/well in 40 μL complete DMEM using a Multidrop COMBI (Thermal Scientific) followed by incubation at 37° C. for 2 hr to allow for plate adherence. SIK inhibitors (100 nL/well) were pin-transferred from concentrated DMSO stocks using CyBi-Well Vario (CyBio) into duplicate plates. For each treatment plate, 32 out of 384 wells were pinned with DMSO as negative control and 32 out of 384 wells were pinned with PGE2 (5 μM final concentration). Two days after SIK inhibitor treatment, BMDCs were stimulated with zymosan (4 μg/mL final concentration) dispersed in culture medium (20 μL/well) using a Multidrop COMBI. After 18 hr, 5 μL of resulting supernatant was transferred from the culture plate to white 384-well AlphaLISA plates (Perkin Elmer) using a CyBi-Well Vario. IL-10 abundance in the supernatants was determined using an AlphaLISA assay (PerkinElmer) according to the manufacture's protocol and signal intensity measured using an EnVision multimode plate reader. SIK inhibitor activity was expressed as a % of the differences between the mean abundance of IL-10 in PGE2 versus DMSO wells on a per plate basis. Cell viability assays were conducted on the same tissue culture plates as the IL-10 assay. First media was removed and replaced by solution of 50% (vol/vol) CellTiter-Glo (Promega) in PBS. Luminescence was read using an Envision multimode plate reader, and signal intensity calculated relative to DMSO control wells on a per plate basis.

SIK3 = biological target: T1, SIK3 (Homo sapiens, UniProt Q9Y2K2); experiment: Protein kinase assay ([γ-32P] ATP, phosphocellulose paper) against SIK3; type: biochemical; settings: read-out: Enzyme Inhibition IC50 SIK3
T1 construct: made in house
T1 sequence (Q9Y2K2 whole entry): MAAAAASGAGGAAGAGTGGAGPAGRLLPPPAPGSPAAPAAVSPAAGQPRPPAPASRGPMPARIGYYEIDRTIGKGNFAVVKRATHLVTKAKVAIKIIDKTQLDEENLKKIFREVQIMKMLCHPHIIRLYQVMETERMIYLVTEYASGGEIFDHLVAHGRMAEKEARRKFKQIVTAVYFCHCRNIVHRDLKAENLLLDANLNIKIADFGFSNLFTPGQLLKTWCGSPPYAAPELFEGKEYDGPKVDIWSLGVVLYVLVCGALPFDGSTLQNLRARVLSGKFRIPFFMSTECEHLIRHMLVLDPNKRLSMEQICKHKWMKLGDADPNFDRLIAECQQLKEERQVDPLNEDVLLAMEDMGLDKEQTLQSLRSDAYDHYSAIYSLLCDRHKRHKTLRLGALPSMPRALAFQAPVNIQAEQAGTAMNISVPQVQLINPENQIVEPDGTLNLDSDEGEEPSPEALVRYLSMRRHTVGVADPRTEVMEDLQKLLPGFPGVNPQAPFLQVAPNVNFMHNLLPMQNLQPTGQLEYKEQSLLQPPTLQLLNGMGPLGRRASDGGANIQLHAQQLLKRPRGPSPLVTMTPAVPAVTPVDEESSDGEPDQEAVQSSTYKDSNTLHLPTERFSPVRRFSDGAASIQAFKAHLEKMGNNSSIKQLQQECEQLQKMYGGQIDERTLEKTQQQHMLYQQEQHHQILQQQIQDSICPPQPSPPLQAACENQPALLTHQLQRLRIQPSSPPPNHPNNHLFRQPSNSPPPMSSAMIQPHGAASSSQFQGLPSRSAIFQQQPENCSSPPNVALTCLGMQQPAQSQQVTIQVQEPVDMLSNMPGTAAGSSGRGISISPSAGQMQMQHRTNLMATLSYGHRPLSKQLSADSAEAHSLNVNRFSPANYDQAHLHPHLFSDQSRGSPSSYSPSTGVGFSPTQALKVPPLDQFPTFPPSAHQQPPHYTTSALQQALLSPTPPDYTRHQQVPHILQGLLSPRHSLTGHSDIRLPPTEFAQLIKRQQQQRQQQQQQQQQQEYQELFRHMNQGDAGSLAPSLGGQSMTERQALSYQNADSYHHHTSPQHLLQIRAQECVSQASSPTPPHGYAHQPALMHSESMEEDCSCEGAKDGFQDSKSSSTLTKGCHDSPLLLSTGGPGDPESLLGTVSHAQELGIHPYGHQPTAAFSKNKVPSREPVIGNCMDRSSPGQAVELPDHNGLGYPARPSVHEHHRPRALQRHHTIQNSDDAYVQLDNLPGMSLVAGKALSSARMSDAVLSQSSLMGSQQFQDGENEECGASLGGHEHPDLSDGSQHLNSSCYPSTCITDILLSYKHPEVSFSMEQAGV
Experimental: as §1
(§3) In another set of experiments, the activities of the SIK inhibitors described herein against SIK were determined according to the methods reported in Hastie et al., Nature Protocols, 2006, 1, 968-971.
(§4) This buffer consisted of 50 mM Tris-HCl, pH 7.5, 0.1 mM EGTA, 1 mg ml^−1 bovine serum albumin and 0.1% (vol/vol) 2-mercaptoethanol.
(§5) An assay buffer of 500 mM Tris-HCl, pH 7.5, 1 mM EGTA, and 100 mM magnesium acetate was used for the protein kinase assay.
(§6) The specific activity of the [γ-^32P] ATP solution was 1×10^5 to 1×10^6 c.p.m. per nmol depending on what was needed to produce an optimal signal/noise ratio. Stocks of nonradioactive (“cold”) ATP were dissolved in 10 mM HEPES, and the pH of the resulting stock solutions was adjusted to 7.4. To measure the concentration of ATP, a sample of such a stock solution was diluted to 20 μM, and the absorbance of the diluted sample was measured at 259 nm. The absorbance of a 20-μM stock solution of ATP at 259 nm was about 0.31. The 1-mM solution of cold ATP was “spiked” with [γ-^32P] ATP to produce a radioactivity of 1×10^5 to 1×10^6 c.p.m. per nmol.
(§7) 1) The number of assay samples needed was determined based on, e.g., the following considerations: (i) each condition was assayed in duplicate; (ii) two controls containing peptide or protein substrate and ATP but no SIK were included to assess contamination by any free ATP not incorporated into substrate, alongside two controls lacking a peptide or protein substrate but containing ATP and SIK to correct for any incorporation of phosphate into the kinase itself (e.g., autophosphorylation); and (iii) a maximum of 40 samples were assayed manually at one time by a single person. Microcentrifuge tubes were label distinctly and were placed on ice.
(§8) 4) Dilute the SIK in enzyme dilution buffer and place on ice.
(§9) 5) Pipette 5 j±l of 10× concentrated assay buffer, 5 j±l peptide or protein substrate (the two “no-substrate” control tubes had 5 j±l water added instead of peptide or protein substrate), and 30 μl distilled water into each tube. Keep the tubes on ice.
(§10) 6) Add 5 μl diluted SIK to each tube, except for the two “no-enzyme” control tubes, which had 5 μl enzyme dilution buffer added, and still keeping the tubes on ice. In some cases, premixed “cocktails” of assay components were prepared containing peptide or protein substrate, assay buffer, and distilled water to limit the number of additions to each assay tube. Each of steps 7 to 14 was done behind a plexiglass shield.
(§11) 7) Insert each tube into the water bath at intervals of 15 s to allow the assay mixture to reach 30° C. Begin the SIK reactions by adding 5 μl of 1 mM [γ-^32P] ATP to each tube at intervals of 15 s. Close each tube, vortex for 1 s to mix the contents and immediately replace in a rack in the water bath. Incubate for 10 min at 30° C. […]

SIK2 = biological target: T2, SIK2 (Homo sapiens, UniProt Q9H0K1); experiment: Protein kinase assay ([γ-32P] ATP, phosphocellulose paper) against SIK2; type: biochemical; settings: for IC50: read-out: Enzyme Inhibition IC50 SIK2
T2 construct: made in house
T2 sequence (Q9H0K1 whole entry): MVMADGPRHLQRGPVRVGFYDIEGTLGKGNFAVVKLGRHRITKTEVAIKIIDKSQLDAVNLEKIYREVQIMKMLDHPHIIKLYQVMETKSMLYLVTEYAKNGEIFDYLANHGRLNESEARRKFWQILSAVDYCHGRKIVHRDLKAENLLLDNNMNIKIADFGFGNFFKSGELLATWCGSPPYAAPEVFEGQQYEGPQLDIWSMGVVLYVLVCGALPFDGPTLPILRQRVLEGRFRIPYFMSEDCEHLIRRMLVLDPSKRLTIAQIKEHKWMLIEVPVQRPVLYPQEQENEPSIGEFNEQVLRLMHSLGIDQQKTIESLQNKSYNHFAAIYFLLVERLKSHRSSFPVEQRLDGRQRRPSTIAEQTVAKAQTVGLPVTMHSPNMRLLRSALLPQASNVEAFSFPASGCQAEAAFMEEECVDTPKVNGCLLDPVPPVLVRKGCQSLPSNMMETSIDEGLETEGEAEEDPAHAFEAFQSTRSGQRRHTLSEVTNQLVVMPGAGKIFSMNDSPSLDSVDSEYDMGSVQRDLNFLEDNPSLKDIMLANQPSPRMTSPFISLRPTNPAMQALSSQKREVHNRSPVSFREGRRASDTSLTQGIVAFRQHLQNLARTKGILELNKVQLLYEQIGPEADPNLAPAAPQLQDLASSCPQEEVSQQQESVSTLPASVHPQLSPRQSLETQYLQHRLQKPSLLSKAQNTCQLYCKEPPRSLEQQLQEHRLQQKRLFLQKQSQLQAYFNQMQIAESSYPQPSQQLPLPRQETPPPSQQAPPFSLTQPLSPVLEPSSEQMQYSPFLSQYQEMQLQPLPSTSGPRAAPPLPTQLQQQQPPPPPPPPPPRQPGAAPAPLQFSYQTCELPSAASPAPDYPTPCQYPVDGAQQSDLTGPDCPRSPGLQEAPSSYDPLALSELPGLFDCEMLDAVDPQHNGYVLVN
Experimental: as §1, §3, §4, §5, §6, §7, §8, §9, §10, §11

SIK1 = biological target: T3, SIK1 (Homo sapiens, UniProt P57059); experiment: Protein kinase assay ([γ-32P] ATP, phosphocellulose paper) against SIK1; type: biochemical; settings: 1 μM; DMSO set to 100%; read-out: Activity of protein kinase treated with 1 μM of I-1 (% control (DMSO)) SIK1
T3 construct: made in house
T3 sequence (P57059 whole entry): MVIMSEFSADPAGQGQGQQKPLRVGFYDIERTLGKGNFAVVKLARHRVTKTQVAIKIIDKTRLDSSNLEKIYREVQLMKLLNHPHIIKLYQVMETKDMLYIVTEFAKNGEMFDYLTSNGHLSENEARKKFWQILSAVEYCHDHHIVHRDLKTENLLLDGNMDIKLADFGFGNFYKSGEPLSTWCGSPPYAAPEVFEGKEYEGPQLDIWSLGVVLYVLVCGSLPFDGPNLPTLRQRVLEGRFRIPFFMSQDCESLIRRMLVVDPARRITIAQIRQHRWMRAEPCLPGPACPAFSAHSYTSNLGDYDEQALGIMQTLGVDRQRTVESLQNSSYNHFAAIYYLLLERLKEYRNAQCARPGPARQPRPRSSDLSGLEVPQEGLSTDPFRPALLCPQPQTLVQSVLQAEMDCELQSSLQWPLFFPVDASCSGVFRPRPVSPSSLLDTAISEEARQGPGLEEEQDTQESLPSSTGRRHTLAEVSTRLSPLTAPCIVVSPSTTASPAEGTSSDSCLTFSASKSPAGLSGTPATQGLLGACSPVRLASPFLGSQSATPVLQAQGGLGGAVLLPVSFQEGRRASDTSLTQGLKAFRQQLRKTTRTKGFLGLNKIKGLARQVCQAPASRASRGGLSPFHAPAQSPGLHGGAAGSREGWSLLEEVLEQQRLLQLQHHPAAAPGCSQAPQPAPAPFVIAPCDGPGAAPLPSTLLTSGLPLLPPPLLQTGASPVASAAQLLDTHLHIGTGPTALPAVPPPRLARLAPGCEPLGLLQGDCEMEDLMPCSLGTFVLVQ
Experimental: as §1, with “Total RNA was extracted using a NucleoSpin 96 RNA isolation kit (Macherey-Nagel) followed by cDNA synthesis and multiplex RT-PCR using a microfluidic dynamic array (Fluidigm).” left out, “NO production was estimated based on nitrate content in culture medium using the Greiss reagent.” left out
In another set of experiments, the activities of the SIK inhibitors described herein against SIK were determined according to the methods reported in Hastie et al., Nature Protocols, 2006, 1, 968-971. […]
The specific activity of the [γ-^32P] […] To measure the concentration of ATP, a sample of such a stock solution was diluted to 20 μM, and the absorbance of the diluted sample was measured at 259 nm. The absorbance of a 20-μM stock solution of ATP at 259 nm was about 0.31. […] ATP to produce a radioactivity of 1×10^5 to 1×10^6 c.p.m. per nmol. […]

BMDCs [3] = experiment: Multiplex qPCR of transcripts in stimulated BMDCs; type: cell-based, mouse; settings: 2 days pre-treatment, 4 hr LPS, R848 or zymosan
Experimental: as §1
as §2, with “Unless otherwise indicated, cells were treated for 2 days with PGE2 (5 μM) or HG-9-91-01 (0.5 μM) or an equivalent concentration of DMSO (≤0.5%) and then stimulated for 18 hr with LPS (100 ng/mL), R848 (10 μg/mL) or zymosan (4 μg/mL).” left out
Total RNA was extracted using a NucleoSpin 96 RNA isolation kit (Macherey-Nagel). […] Relative gene expression was calculated from Ct values and normalized against ACTB mRNA levels as described previously (Pfaffl MW (2001) A new mathematical model for relative quantification in real-time RT-PCR. Nucleic acids research 29(9):e45). […]

BMDCs [4] = experiment: Cytokine (cytometric bead array) and NO (Greiss) production by stimulated BMDCs; type: cell-based, mouse
Experimental: as §1, §2
After stimulation of cells with microbial ligands, the culture medium was removed, clarified by centrifugation for 10 min at 14,000×g, and the concentration of TNF-α, IL-6, IL-10, IL-12p40, IL-1β and RANTES were measured using FlexSet Cytokine Bead Array (BD Biosciences) according to the manufacturer's instructions. Where indicated, ELISAs were used to detect IL-10 and IL-12p70 (BD Biosciences) according to the manufacturer's instructions. NO production was estimated based on nitrate content in culture medium using the Greiss reagent as described previously (Miletic A V, et al. (2007) Vav proteins control MyD88-dependent oxidative burst. Blood 109(8):3360-3368).

| SMILES | viability of BMDCs (in words) (BMDCs [2]) | IC50 (SIK3) | IC50 (SIK2) | EC50 (BMDCs [2]) | further results |
| --- | --- | --- | --- | --- | --- |
| Cc1c[nH]c(-c2cnc(NCCNc3ccc(C#N)cn3)nc2-c2ccc(Cl)cc2Cl)n1 [CHIR-99021, reference compound] | reduced viability | – | – | – | maximum effect on IL-10 production ([1]; zymosan-stimulated BMDCs, hit criterion): > 30 % of the PGE2 response |
| CCN1CCN(CCOc2ccc3cc2COC/C=C/CN(C(=O)Oc2c(C)cccc2C)c2ccnc(n2)N3)CC1 [I-2] | – | 445 nM | 87.8 nM | 6580 nM | remaining activity at 1 µM (SIK2; 1 μM, DMSO set to 100%, read-out: Activity of protein kinase treated with 1 μM of I-1 (% control (DMSO)) SIK2): 15%; remaining activity at 1 µM (SIK1): 15.9% |
| Cc1cccc(C)c1OC(=O)N1C/C=C/COCc2cc(ccc2OCCN2CCC(O)CC2)Nc2nccc1n2 [I-4] | – | 409 nM | 93.8 nM | 5000 nM | EC50 ([1]; zymosan-stimulated BMDCs): 10500 nM |
| Cc1cccc(C)c1OC(=O)N1C/C=C\COCc2cc(ccc2OCCN2CCC(O)CC2)Nc2nccc1n2 [I-5] | – | 73.7 nM | 12 nM | 6120 nM | EC50 ([1]; zymosan-stimulated BMDCs): 23800 nM |
| CCCCC[C@H](O)/C=C/[C@H]1[C@H](O)CC(=O)[C@@H]1C/C=C\CCCC(=O)O [PGE2, prostaglandin E2, reference compound] | – | – | – | – | IL-10 mRNA levels (BMDCs [3]): robustly enhanced; abundance of Arg1 and Nos2 transcripts (BMDCs [3]): highly induced; effect on IL-10 production by BMDCs (in words) [1]: increased levels of IL-10; IL-10 secretion (BMDCs [4]; BMDCs pre-treated, LPS, R848 or zymosan 18 hr): similarly induced; IL-1β production (BMDCs [4]; BMDCs, stimulation with R848 or zymosan): enhanced; NO production (BMDCs [4]; BMDCs, zymosan stimulation, relative to HG-9-91-01-treated): increased NO production |
| COc1cc(N2CCC(N3CCN(C)CC3)CC2)ccc1Nc1ncc(Cl)c(Nc2ccccc2S(=O)(=O)C(C)C)n1 [TAE-684, reference compound] | reduced viability | – | – | – | – |
| COc1cc(Nc2c(C#N)cnc3cc(OCCCN4CCN(C)CC4)c(OC)cc23)c(Cl)cc1Cl [bosutinib, reference compound] | reduced viability | – | – | – | – |
| Cc1ccc(NC(=O)c2ccc(CN3CCN(C)CC3)cc2)cc1Nc1nccc(-c2cccnc2)n1 [imatinib, reference compound] | non-toxic | – | – | – | effect on IL-10 production by BMDCs (in words) [1]: did not up-regulate IL-10 production |
| CN1CCN(CCOc2cc(OC3CCOCC3)c3c(Nc4c(Cl)ccc5c4OCO5)ncnc3c2)CC1 [saracatinib, reference compound] | reduced viability | – | – | – | – |
